These results are taken from ChEMBL document CHEMBL1201862, “PubChem BioAssay data set” (2004).

SMILES strings stand for the structures.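 Exposure lasted 48 hours, with cells grown in 96-well plates and compounds tested at five concentrations. GI50: concentration for 50% inhibition of growth.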 Active and inactive are the calls of the source. Rule as the data show it: active = GI50 up to about 1.1 µM and inactive = higher.

Some test systems named below: CAKI-1; CCRF-CEM; HCT-116; HOP-62; HT-29; K562; Malme-3M; NCI-H460; NCI-H522; OVCAR-3; SF-295; SK-MEL-28; SK-MEL-2; SK-OV-3; SN12C; SNB-75; SR; SW-620; U-251; UACC-62.
Holding throughout (experiment): growth of human tumour cells (NCI), 48 h

Turning to `C/C(CC(O)(C(F)(F)F)C(F)(F)F)=N\NC(N)=S`, the GI50 with CAKI-1, in the assay with CCRF-CEM, with HCT-116, with HOP-62, with HT-29 and with K562 was > 10 µM (inactive) each time. The GI50 in the assay on Malme-3M, in the assay on NCI-H460, with NCI-H522, in the assay on OVCAR-3, in the assay with SF-295 and in the assay on SK-MEL-28 was > 10 µM (inactive) in each case. Moreover, the GI50 with SK-MEL-2, in the assay on SK-OV-3, in the assay on SN12C, in the assay with SNB-75, in the assay with SR and in the assay with SW-620 was > 10 µM (inactive) in each case. Besides, the GI50 with U-251 and in the assay on UACC-62 was > 10 µM (inactive) each time.

With `CN(C)CCCn1cnc2cc(Cl)c(Cl)cc21`, the GI50 with CAKI-1 is 64.3 µM (inactive); in the assay on CCRF-CEM, 55.7 µM (inactive); with HCT-116, 48 µM (inactive); in the assay with HOP-62, > 100 µM (inactive); with HT-29, 72.3 µM (inactive); in the assay with K562 it was 67.3 µM (inactive). Besides, the GI50 is > 100 µM (inactive) in the assay on Malme-3M; 91.8 µM (inactive) in the assay with NCI-H460; > 100 µM (inactive) in the assay on NCI-H522; > 100 µM (inactive) with OVCAR-3; > 100 µM (inactive) with SF-295; 17.9 µM (inactive) in the assay with SK-MEL-28. Besides, the GI50 is > 100 µM (inactive) with SK-MEL-2; > 100 µM (inactive) with SK-OV-3; 43.8 µM (inactive) with SN12C; 33.1 µM (inactive) in the assay with SNB-75; 93.5 µM (inactive) in the assay on SR; > 100 µM (inactive) in the assay with SW-620. Also, the GI50 in the assay with U-251 is > 100 µM (inactive); in the assay with UACC-62 it was 27.7 µM (inactive).

For the molecule `S=C(NCCc1ccccn1)N/N=C/c1ccccn1`, the GI50 in the assay with CAKI-1 is < 0.01 µM (active); with CCRF-CEM, < 0.01 µM (active); in the assay with HCT-116, < 0.01 µM (active); in the assay on HOP-62, 0.0149 µM (active); in the assay on K562, < 0.01 µM (active); in the assay with Malme-3M, 2.62 µM (inactive). For the same molecule, the GI50 in the assay with NCI-H460 was 0.501 µM (active); with NCI-H522 it was < 0.01 µM (active); with OVCAR-3, < 0.01 µM (active); in the assay with SF-295 it was 0.964 µM (active); in the assay on SK-MEL-28, 1.87 µM (inactive); in the assay with SK-MEL-2, 0.0457 µM (active). Besides, the GI50 with SK-OV-3 was 1.12 µM (active); with SN12C it was 1.11 µM (active); in the assay on SNB-75, 9.35 µM (inactive); in the assay with SR, < 0.01 µM (active); in the assay with SW-620 it was < 0.01 µM (active); in the assay with UACC-62, 0.0841 µM (active).

Regarding `Cc1cn([C@H]2C[C@@H](N3C(=O)c4ccccc4C3=O)[C@@H](CO[Si](C)(C)C(C)(C)C)O2)c(=O)[nH]c1=O`, the GI50 in the assay with CAKI-1 was 53.3 µM (inactive); with CCRF-CEM it was 36 µM (inactive); in the assay on HCT-116, 49.2 µM (inactive); with HOP-62, 20.7 µM (inactive); in the assay with HT-29, 20.4 µM (inactive); in the assay with K562 it was 52.5 µM (inactive). Also, the GI50 with Malme-3M is 87.3 µM (inactive); with NCI-H460, > 100 µM (inactive); with NCI-H522, 50.4 µM (inactive); with OVCAR-3, > 100 µM (inactive); in the assay with SF-295 it was 37 µM (inactive); in the assay with SK-MEL-28, > 100 µM (inactive). The GI50 is 46.8 µM (inactive) with SK-MEL-2; 30.1 µM (inactive) with SK-OV-3; > 100 µM (inactive) in the assay with SN12C; 24 µM (inactive) in the assay on SNB-75; 36.7 µM (inactive) in the assay on SR; > 100 µM (inactive) in the assay on SW-620. The GI50 was 34.9 µM (inactive) in the assay with U-251 and 23.8 µM (inactive) in the assay on UACC-62.

As for `O=C(CCc1nnc(S)[nH]1)Nc1cc(Cl)ccc1Cl`, the GI50 in the assay on CAKI-1, with CCRF-CEM, with HCT-116, in the assay on HOP-62, in the assay with HT-29 and with K562 was > 100 µM (inactive) each time. In addition, the GI50 in the assay with Malme-3M, with NCI-H460, in the assay on NCI-H522, in the assay with OVCAR-3, in the assay with SF-295 and with SK-MEL-28 was > 100 µM (inactive) in each case. Also, the GI50 in the assay with SK-MEL-2 is > 100 µM (inactive); with SK-OV-3, > 100 µM (inactive); with SN12C it was > 100 µM (inactive); in the assay with SNB-75, 37.9 µM (inactive); with SR it was > 100 µM (inactive); in the assay on SW-620, > 100 µM (inactive). For the same molecule, the GI50 with U-251 and in the assay with UACC-62 was > 100 µM (inactive) throughout.

For `O=c1[nH]c2nc[nH]c2c(=O)n1C1CCCCC1`, the GI50 in the assay on CAKI-1, in the assay on CCRF-CEM, with HCT-116, with HOP-62, in the assay on HT-29 and in the assay with K562 was > 100 µM (inactive) each time. The GI50 with Malme-3M, with NCI-H460, with NCI-H522, in the assay with OVCAR-3, with SF-295 and in the assay on SK-MEL-28 was > 100 µM (inactive) in each case. Further, the GI50 in the assay on SK-MEL-2 is 72.9 µM (inactive); in the assay on SK-OV-3 it was > 100 µM (inactive); in the assay with SN12C, > 100 µM (inactive); in the assay with SNB-75, > 100 µM (inactive); with SR, > 100 µM (inactive); in the assay with SW-620, > 100 µM (inactive). Further, the GI50 in the assay with U-251 and in the assay with UACC-62 was > 100 µM (inactive) each time.

Regarding `COc1cc2nc(-c3ccccc3F)nc(O)c2cc1OC`, the GI50 was > 100 µM (inactive) in the assay on CAKI-1; > 100 µM (inactive) with CCRF-CEM; > 100 µM (inactive) in the assay with HCT-116; 92.5 µM (inactive) with HOP-62; 59.4 µM (inactive) in the assay with HT-29; > 100 µM (inactive) in the assay with K562. Also, the GI50 in the assay with Malme-3M was > 100 µM (inactive); in the assay with NCI-H460, 71.8 µM (inactive); in the assay with NCI-H522 it was 89.5 µM (inactive); in the assay with OVCAR-3, > 100 µM (inactive); with SF-295, > 100 µM (inactive); in the assay on SK-MEL-2, > 100 µM (inactive). For the same molecule, the GI50 in the assay with SK-OV-3 was > 100 µM (inactive); in the assay with SN12C it was > 100 µM (inactive); in the assay on SNB-75, > 100 µM (inactive); in the assay on SR, > 100 µM (inactive); in the assay with UACC-62, 60 µM (inactive).

Turning to `COc1ccc(NC(/C(C(=O)c2ccccc2)=C(\O)C(=O)/C=C(\O)c2ccccc2)c2ccc(OC)cc2)cc1` (centres undefined), the GI50 with CAKI-1 is 33.2 µM (inactive); in the assay on CCRF-CEM it was 32.8 µM (inactive); in the assay on HCT-116, 35.8 µM (inactive); with HOP-62, 52.4 µM (inactive); with HT-29, 45.8 µM (inactive); in the assay with K562, 44.3 µM (inactive). The GI50 with Malme-3M is 21.2 µM (inactive); in the assay with NCI-H460, 43.6 µM (inactive); with NCI-H522, 15.2 µM (inactive); in the assay with OVCAR-3, 21.6 µM (inactive); in the assay with SF-295, 33 µM (inactive); with SK-MEL-28 it was 32.9 µM (inactive). The GI50 is 23.6 µM (inactive) in the assay on SK-MEL-2; 39.3 µM (inactive) with SK-OV-3; > 100 µM (inactive) with SN12C; 17.8 µM (inactive) in the assay on SNB-75; 31.6 µM (inactive) in the assay on SR; 38.9 µM (inactive) in the assay with U-251. Further, the GI50 in the assay on UACC-62 was 52.4 µM (inactive).
